Results: ChEMBL document CHEMBL3576805, “Discovery of a Dual PRMT5-PRMT7 Inhibitor” (ACS Med Chem Lett, 2015)
Activity calls are given as the source filed them. The rule behind the calls is not given here.

Key:
[1] = target: T1, PRMT5/MEP50 complex (Homo sapiens) (UniProt O14744+Q9BQA1); assay: (§1) Inhibition of human full length PRMT5-MEP50 complex expressed in Sf9 cells
[2] = target: T2, PRMT5/MEP50 complex (Homo sapiens, UniProt O14744); assay: as §1
[3] = target: Protein arginine N-methyltransferase 5 (Homo sapiens, UniProt O14744); assay: Inhibition of human full length PRMT5 expressed in Sf9 cells
[4] = target: T3, Protein arginine N-methyltransferase 7 (Homo sapiens, UniProt Q9NVM4); assay: Inhibition of human full length PRMT7 expressed in Sf9 cells
T3 sequence (Q9NVM4 whole entry): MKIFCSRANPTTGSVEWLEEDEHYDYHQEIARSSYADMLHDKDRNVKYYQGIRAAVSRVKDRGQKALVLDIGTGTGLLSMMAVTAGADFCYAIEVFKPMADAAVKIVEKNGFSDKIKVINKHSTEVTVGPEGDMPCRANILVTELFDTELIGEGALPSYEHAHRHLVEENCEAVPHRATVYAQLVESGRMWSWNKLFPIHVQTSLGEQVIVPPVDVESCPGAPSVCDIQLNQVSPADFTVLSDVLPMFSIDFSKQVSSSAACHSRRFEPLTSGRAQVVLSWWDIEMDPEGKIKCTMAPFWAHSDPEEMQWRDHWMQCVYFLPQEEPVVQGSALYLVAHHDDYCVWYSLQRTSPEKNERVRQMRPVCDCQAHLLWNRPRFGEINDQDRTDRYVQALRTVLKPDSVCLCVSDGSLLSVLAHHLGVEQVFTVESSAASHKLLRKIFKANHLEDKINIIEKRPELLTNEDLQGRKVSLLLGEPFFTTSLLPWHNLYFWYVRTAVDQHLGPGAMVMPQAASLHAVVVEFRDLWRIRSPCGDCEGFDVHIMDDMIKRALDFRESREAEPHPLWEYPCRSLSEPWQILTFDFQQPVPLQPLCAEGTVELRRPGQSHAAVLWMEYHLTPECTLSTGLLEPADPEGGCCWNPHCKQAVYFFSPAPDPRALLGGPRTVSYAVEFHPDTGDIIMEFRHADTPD

[5] = target: DNA (cytosine-5)-methyltransferase 3A (Homo sapiens, UniProt Q9Y6K1); assay: Inhibition of human full length DNMT3A expressed in Sf9 cells
[6] = target: DNA (cytosine-5)-methyltransferase 3B (Homo sapiens, UniProt Q9UBC3); assay: Inhibition of human full length DNMT3B expressed in Sf9 cells
[7] = target: T2, PRMT5/MEP50 complex; assay: Binding affinity to human full length PRMT5-MEP50 complex by Surface plasmon resonance method; format: protein-complex assay
[8] = target: T3, Protein arginine N-methyltransferase 7; assay: Binding affinity to human full length PRMT7 by Surface plasmon resonance method
[9] = target: T1, PRMT5/MEP50 complex (Homo sapiens); assay: Noncompetitive inhibition of human full length PRMT5-MEP50 complex expressed in Sf9 cells in presence of increasing concentration of histone peptide substrate
[10] = target: Protein arginine N-methyltransferase 1 (Homo sapiens) (UniProt Q99873); assay: Inhibition of PRMT1 (unknown origin)
[11] = target: Protein arginine N-methyltransferase 3 (Homo sapiens) (UniProt O60678); assay: Inhibition of PRMT3 (unknown origin)
[12] = target: Protein arginine N-methyltransferase 6 (Homo sapiens) (UniProt Q96LA8); assay: Inhibition of PRMT6 (unknown origin)
[13] = target: Protein arginine N-methyltransferase 8 (Homo sapiens) (UniProt Q9NR22); assay: Inhibition of PRMT8 (unknown origin)
[14] = tested on: MDA-MB-231; assay: Inhibition of H4R3 methylation in human MDA-MB-231 cells at 50 uM by immunoblotting analysis; format: functional, cell-based
[15] = tested on: MDA-MB-231; assay: Cytotoxicity against human MDA-MB-231 cells assessed as cell viability by Alamar blue assay; format: cell-based
[16] = target: T1, PRMT5/MEP50 complex (Homo sapiens); assay: Inhibition of human full length PRMT5-MEP50 complex expressed in Sf9 cells using SmD3 peptide AGRGRGKAAILKAQVAARGRGRGMGRGN as a substrate
[17] = target: T2, PRMT5/MEP50 complex; assay: Inhibition of human full length PRMT5-MEP50 complex expressed in Sf9 cells using full length histone H4 substrate
[18] = target: T1, PRMT5/MEP50 complex (Homo sapiens); assay: Inhibition of human full length PRMT5-MEP50 complex expressed in Sf9 cells assessed as inhibition of methylation of peptide substrate at 750 uM

T2 sequence (O14744 whole entry): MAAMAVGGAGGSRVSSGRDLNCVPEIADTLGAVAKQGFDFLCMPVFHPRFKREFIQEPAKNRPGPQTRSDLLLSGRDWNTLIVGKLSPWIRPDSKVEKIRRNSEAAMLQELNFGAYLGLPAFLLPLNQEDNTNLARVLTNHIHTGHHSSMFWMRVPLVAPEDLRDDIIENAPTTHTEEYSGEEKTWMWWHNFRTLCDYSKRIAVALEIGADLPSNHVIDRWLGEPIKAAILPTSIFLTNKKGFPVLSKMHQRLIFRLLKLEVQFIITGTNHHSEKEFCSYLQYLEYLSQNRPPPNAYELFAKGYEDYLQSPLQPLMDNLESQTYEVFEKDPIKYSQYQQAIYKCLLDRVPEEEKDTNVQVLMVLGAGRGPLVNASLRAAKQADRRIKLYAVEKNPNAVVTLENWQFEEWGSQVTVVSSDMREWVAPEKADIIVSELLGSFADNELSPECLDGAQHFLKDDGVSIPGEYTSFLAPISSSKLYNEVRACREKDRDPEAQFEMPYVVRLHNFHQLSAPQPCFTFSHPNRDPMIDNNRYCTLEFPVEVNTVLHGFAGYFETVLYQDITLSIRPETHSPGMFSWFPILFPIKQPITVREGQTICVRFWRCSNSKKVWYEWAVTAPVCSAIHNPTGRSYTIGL
T2 sequence (Q9BQA1 whole entry, further chain): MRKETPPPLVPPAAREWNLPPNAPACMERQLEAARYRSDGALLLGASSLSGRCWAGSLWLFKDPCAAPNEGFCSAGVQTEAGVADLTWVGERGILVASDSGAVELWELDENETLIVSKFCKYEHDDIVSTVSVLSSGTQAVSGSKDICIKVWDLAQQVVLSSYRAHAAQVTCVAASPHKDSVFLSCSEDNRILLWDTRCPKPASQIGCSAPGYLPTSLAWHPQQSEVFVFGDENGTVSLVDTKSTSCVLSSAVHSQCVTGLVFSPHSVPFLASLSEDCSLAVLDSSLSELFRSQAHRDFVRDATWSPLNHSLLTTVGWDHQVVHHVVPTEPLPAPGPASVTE
Chain of DNA (cytosine-5)-methyltransferase 3A (Q9Y6K1 whole entry, looked up): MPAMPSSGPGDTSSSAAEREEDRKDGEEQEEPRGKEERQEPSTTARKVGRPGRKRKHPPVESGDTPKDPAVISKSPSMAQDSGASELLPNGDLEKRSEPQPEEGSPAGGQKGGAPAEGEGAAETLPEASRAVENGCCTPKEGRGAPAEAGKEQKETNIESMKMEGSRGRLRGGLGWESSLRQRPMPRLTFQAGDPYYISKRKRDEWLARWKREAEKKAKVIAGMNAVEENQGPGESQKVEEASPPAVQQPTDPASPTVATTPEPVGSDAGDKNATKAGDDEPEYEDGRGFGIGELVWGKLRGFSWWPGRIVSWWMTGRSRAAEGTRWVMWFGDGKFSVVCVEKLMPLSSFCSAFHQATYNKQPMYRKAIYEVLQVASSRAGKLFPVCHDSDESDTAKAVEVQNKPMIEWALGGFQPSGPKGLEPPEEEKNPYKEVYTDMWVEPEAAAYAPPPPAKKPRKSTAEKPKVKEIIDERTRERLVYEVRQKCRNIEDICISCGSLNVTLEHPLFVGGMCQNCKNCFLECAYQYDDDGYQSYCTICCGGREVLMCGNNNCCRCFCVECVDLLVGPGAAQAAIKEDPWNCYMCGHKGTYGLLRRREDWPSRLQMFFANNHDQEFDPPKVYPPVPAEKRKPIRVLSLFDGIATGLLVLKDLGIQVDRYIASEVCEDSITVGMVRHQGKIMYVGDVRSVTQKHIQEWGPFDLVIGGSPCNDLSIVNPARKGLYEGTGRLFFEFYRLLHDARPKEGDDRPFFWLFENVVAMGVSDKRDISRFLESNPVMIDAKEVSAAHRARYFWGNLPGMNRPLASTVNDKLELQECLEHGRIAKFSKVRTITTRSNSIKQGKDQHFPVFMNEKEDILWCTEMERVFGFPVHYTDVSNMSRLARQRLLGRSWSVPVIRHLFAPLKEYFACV
Chain of Protein arginine N-methyltransferase 3 (Homo sapiens) (O60678 2-531 limits assumed): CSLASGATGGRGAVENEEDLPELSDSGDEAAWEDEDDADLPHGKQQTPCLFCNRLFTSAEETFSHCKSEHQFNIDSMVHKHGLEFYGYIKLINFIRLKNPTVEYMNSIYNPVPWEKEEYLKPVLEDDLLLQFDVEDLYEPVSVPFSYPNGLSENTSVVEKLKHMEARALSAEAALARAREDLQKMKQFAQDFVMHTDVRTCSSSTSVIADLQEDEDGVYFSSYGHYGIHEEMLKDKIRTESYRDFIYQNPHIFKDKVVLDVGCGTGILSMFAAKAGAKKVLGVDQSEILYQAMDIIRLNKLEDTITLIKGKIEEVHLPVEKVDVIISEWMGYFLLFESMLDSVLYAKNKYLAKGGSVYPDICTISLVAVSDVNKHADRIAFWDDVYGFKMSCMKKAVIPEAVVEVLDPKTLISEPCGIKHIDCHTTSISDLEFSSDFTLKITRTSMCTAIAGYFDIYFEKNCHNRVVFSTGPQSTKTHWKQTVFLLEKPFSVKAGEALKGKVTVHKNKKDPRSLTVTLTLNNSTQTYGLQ
Chain of Protein arginine N-methyltransferase 1 (Homo sapiens) (Q99873 whole entry, looked up): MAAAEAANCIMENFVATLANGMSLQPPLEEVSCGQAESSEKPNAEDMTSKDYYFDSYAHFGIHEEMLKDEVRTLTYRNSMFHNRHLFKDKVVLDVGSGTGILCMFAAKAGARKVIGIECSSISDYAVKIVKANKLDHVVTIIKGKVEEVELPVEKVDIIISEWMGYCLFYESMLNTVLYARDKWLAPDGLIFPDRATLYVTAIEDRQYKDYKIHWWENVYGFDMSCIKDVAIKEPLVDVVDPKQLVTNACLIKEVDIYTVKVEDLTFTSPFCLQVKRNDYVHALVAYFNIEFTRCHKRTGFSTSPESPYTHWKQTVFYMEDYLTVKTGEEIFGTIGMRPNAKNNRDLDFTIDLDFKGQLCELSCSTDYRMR
Chain of Protein arginine N-methyltransferase 6 (Homo sapiens) (Q96LA8 whole entry, looked up): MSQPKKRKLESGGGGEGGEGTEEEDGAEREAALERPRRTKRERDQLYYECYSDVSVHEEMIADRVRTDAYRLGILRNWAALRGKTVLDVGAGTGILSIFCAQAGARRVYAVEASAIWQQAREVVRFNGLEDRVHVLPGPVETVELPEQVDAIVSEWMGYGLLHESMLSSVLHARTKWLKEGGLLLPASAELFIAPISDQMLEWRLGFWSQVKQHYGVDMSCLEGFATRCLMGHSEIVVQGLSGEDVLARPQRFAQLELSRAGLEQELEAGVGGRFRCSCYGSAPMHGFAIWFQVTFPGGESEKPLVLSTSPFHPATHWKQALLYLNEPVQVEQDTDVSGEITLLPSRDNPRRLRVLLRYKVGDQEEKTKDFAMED
Chain of Protein arginine N-methyltransferase 8 (Homo sapiens) (Q9NR22 2-394 limits assumed): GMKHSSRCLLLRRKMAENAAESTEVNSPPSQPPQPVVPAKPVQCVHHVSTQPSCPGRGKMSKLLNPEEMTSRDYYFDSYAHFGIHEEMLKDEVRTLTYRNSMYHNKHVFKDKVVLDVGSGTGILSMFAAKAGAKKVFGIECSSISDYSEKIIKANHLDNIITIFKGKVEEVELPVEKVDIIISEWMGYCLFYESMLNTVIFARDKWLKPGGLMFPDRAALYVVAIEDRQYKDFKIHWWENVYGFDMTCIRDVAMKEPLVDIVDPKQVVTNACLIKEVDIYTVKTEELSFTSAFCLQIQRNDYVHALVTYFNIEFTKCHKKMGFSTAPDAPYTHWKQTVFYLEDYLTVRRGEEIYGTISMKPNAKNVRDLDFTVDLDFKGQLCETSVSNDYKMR
Chain of Protein arginine N-methyltransferase 5 (O14744 whole entry): as the sequence (O14744 whole entry) above

inhibition [1] | IC50 [2] | IC50 [3] | IC50 [4] | IC50 [5] | IC50 [6] | Kd [7] | Kd [8] | inhibition [9] | inhibition [10] | inhibition [11] | inhibition [12] | inhibition [13] | inhibition [16] | IC50 [17] | inhibition [18] | SMILES | inhibition [14] | Activity [15]
Dose-dependent effect | 5.9 µM | > 50 µM | > 50 µM | > 50 µM | > 50 µM | 25 µM | 37 µM | Active | inactive | inactive | inactive | inactive | Active | 37 µM |  | CCNC(=O)NCCSC[C@H]1O[C@@H](n2cnc3c(N)ncnc32)[C@H](O)[C@@H]1O | inactive | Non-toxic
 |  |  |  | > 50 µM | > 50 µM |  |  |  |  |  |  |  |  |  |  | Nc1ncnc2c1ncn2[C@@H]1O[C@H](CSCC[C@H](N)C(=O)O)[C@@H](O)[C@H]1O [S-ADENOSYLHOMOCYSTEINE] |  | 
 | > 20 µM |  | 7.5 µM |  |  |  |  |  |  |  |  |  |  |  | 80% | CC(C)N(CCCNC(=O)Nc1ccc(C(C)(C)C)cc1)C[C@H]1O[C@@H](n2ccc3c(N)ncnc32)[C@H](O)[C@@H]1O |  | 
